Results from patent US7425568B2, “Compounds, which are potent inhibitors of Na+ /Ca2+ exchange mechanism and are useful in the treatment of arrhythmias” (Orion Corporation, priority 2001, dated 2008).

Test system: ouabain-induced arrhythmias in guinea-pig papillary muscles
Test: Inhibition of ouabain-induced arrhythmias (aftercontractions) in isolated guinea-pig papillary muscles
Conditions: for maximum amplitude of aftercontractions #1: n=5, vehicle 143±54 mg
Protocol: The effects of the compounds of the invention were tested on ouabain-induced arrhythmias in guinea-pig papillary muscles.
Guinea-pig papillary muscles were mounted into horizontal muscle cuvette. A hook connected to force transducer was attached to another end of the muscle. Muscle preparations were electrically paced at 1 Hz with field stimulation via platinum electrodes. Modified Tyrode solution was used for superfusion of muscle preparations. The composition of the Tyrode solution was the following (mM): NaCl 135, MgCl2×6H2O 1, KCl 5, CaCl2×2H2O 2, NaHCO3 15, Na2HPO4×2H2O 1, and glucose 10. The Tyrode solution was gassed with carbogen (95% O2, 5% CO2) to set pH at 7.4. Experiments were carried out at 37° C. Acquisition and analysis of twitch tensions with Action Potential and Force Measurement System (ACFO v1.0, Fision Ltd, Finland).
Ouabain by blocking of sodium-potassium ATPase increase intracellular sodium which is changed for calcium via NCX. Increased intracellular calcium is leading to overload of sarcoplasmic reticulum (SR) and spontaneous calcium release from SR inducing delayed […] (DADs). Equivalence for DADs in force signal is aftercontractions (ACs) which are seen as spontaneous twitches after the pacing controlled twitch.
The compounds of the invention delayed appearance and decreased amplitude of aftercontractions.

Structure (SMILES) | maximum amplitude of aftercontractions #1 (10 μM, p=0.027) [mg] | appearance of aftercontractions (time to appearance) (30 μM, mean±SD, n=5, vehicle 25±8.9 min, p=0.013, paced at 1 Hz, 37° C) [min] | maximum amplitude of aftercontractions #1 (30 μM, p=0.008) [mg]
CS(=O)(=O)Nc1ccc(Oc2ccc3c(c2)CCC(c2cccc(F)c2)O3)nc1 (stereo not drawn) [Example 67, N-{6-[2-(3-Fluorophenyl)chroman-6-yloxy]pyridin-3-yl}methane Sulfonamide] | 88 ± 20 | – | –
CC(=O)Nc1ccc(Oc2ccc3c(c2)CCC(c2ccccc2)O3)nc1 (stereo not drawn) [Example 27] | – | 38 ± 7.5 | 74 ± 16
